From patent US20240270801A1, “EPITOPE PEPTIDE OF HUMAN ALPHA-SYNUCLEIN AND PHARMACEUTICAL COMPOSITION INCLUDING SAID PEPTIDE” (Sumitomo Pharma Co., Ltd., priority 2021, published 2024)
Non-standard residues stand in square brackets, D forms with d. No end group written: not given here. Ahx = NCCCCCC(=O)O

Experiments:
aggregated human αSyn = experiment: Antibody-inducing ability in mice: ELISA antibody titer of immune serum with respect to aggregated human αSyn; format: in vivo, mouse; conditions: for Antibody titer with respect to aggregated human αSyn, relative to control: mice; for Induction of the antibody to aggregated human αSyn (in words): Example 4, balb/c mice; for Antibody titer with respect to aggregated human αSyn (mean ± standard deviation): Example 4; for Antibody titer with respect to aggregated human αSyn (mean ± standard deviation) / Antibody titer with respect to aggregated human αSyn (N = 4 − 6, mean ± standard deviation): balb/c mice, i.m. twice at 2-week interval, Alum, AJ conjugates 250 μg/mouse, KLH-DMPVDPDN 25 μg/mouse; for Antibody titer with respect to aggregated human αSyn (N = 4 − 6, mean ± standard deviation): Example 2, serum 2 weeks after second administration
Procedure: (§1) Using the various AJ peptide-human αSyn peptide conjugates produced in Example 1, an antibody-inducing ability with respect to human αSyn in mice was evaluated. The various AJ-human αSyn peptide conjugates (250 μg/mouse) or KLH-DMPVDPDN (25 μg/mouse) in physiological saline were intramuscularly administered to balb/c mice (females, 6 weeks old, CLEA Japan, Inc.) twice at a 2-week interval for immunization using aluminum hydroxide (Alum) (InvivoGen, 50 μg/mouse) as an adjuvant. As a negative control, physiological saline (100 μL/mouse) comprising the same amount of aluminum hydroxide was administered twice. Two weeks after the second administration, serum was recovered to evaluate the antibody titer with respect to human αSyn by ELISA.
(§2) ELISA was performed by the following method. 96-well plates were coated with human αSyn (Sigma) at 0.2 μg/well. After washing with PBST (Phosphate Buffered Saline comprising 0.05% Tween) once, blocking was performed with 3% skim milk (FUJIFILM Wako Pure Chemical Corporation). After washing with PBST three times, diluted serum was added to cause a reaction at room temperature for 1 hour. Furthermore, after washing with PBST three times, Goat anti-mouse IgG-HRP (abcam) was added to cause a reaction at room temperature for 1 hour. After washing with PBST three times, SureBlue TMB Microwell Peroxidase Substrate (KPL) was added to cause a reaction at room temperature for 10 minutes while light shielding. An equal volume of a TMB Stop Solution (KPL) was added to stop the reaction, and the absorbance at 450 nm was measured. ELISA with respect to aggregated human αSyn was performed by coating with the aggregated human αSyn (Stress Marq) at 15 ng/well instead of human αSyn in the above-mentioned method.
The antibody-inducing ability of the AJ-human αSyn peptide conjugates (AJ-p54, AJ-p54-KLH, and AJ-DMPVDPDN) produced in Example 1 with respect to human αSyn and aggregated human αSyn in mice was evaluated. Physiological saline or the AJ-human αSyn peptide conjugate (250 μg/mouse) was intramuscularly administered to balb/c mice (females, 6 weeks old, CLEA Japan, Inc.) twice at a 2-week interval using Alum (InvivoGen, 50 μg/mouse) as an adjuvant. Furthermore, KLH-DMPVDPDN (25 μg/mouse) was administered using Alum (InvivoGen, 50 μg/mouse) as an adjuvant. Two weeks after the second administration, serum was recovered to evaluate the antibody titer by ELISA. ELISA was performed by the method described in Example 2.
The antibody-inducing ability of the produced various human αSyn peptide conjugates with respect to human αSyn and aggregated human αSyn in the mice was evaluated by the method described in Example 2 using the antibody titers with respect to human αSyn and aggregated human αSyn of the mouse immune serum. […] In Table 6, the antibody titer of AJ-p242, AJ-p244, AJ-p347, or AJ-p361 is shown with the antibody titer of AJ-p150 as a control being 1 (logarithm). In addition, the antibody titers of AJ-p229, AJ-p237, and AJ-p298 are shown with the antibody titer of AJ-p54 as a control being 1 (logarithm).
The antibody-inducing ability of the AJ-human αSyn peptide conjugates with a modified linker with respect to human αSyn and aggregated human αSyn in the mice was evaluated using the antibody titers with respect to human αSyn and aggregated human αSyn of the mouse immune serum. […] In Table 8, the antibody titers of the AJ-human αSyn peptide conjugates with various modified linkers comprising p54 are shown with the antibody titer of AJ-p54 as a control being 1 (logarithm). In addition, the antibody titers of the AJ-human αSyn peptide conjugates with various modified linkers comprising p150 are shown with the antibody titer of AJ-p150 as a control being 1 (logarithm).

human αSyn = experiment: Antibody-inducing ability in mice: ELISA antibody titer of immune serum with respect to human αSyn; format: in vivo, mouse; set-up: key to Antibody titer with respect to human αSyn, relative to control: log titer relative to control conjugate (control = 1); conditions: for Antibody titer compared with control conjugate (in words): Example 9, mice, human αSyn and aggregated human αSyn, control AJ-p150 or AJ-p54; for Antibody titer with respect to human αSyn (mean ± standard deviation): Example 4; for Antibody titer with respect to human αSyn (mean ± standard deviation) / Antibody titer with respect to human αSyn (N = 4 − 6, mean ± standard deviation): balb/c mice, i.m. twice at 2-week interval, Alum, AJ conjugates 250 μg/mouse, KLH-DMPVDPDN 25 μg/mouse; for Antibody titer with respect to human αSyn (N = 4 − 6, mean ± standard deviation): Example 2, serum 2 weeks after second administration
Procedure: as §1
as §2, with “above-mentioned method. […]” for “above-mentioned method.”
The antibody-inducing ability of the produced various human αSyn peptide conjugates with respect to human αSyn and aggregated human αSyn in the mice was evaluated by the method described in Example 2 using the antibody titers with respect to human αSyn and aggregated human αSyn of the mouse immune serum. […] In Table 6, the antibody titer of AJ-p242, AJ-p244, AJ-p347, or AJ-p361 is shown with the antibody titer of AJ-p150 as a control being 1 (logarithm). In addition, the antibody titers of AJ-p229, AJ-p237, and AJ-p298 are shown with the antibody titer of AJ-p54 as a control being 1 (logarithm). […]

[1] = Example 10, modified linker, titer of AJ-p54 or AJ-p150 as control being 1 (logarithm)
[2] = Example 10, modified linker, mice, titer of AJ-p54 or AJ-p150 as control being 1 (logarithm)
[3] = Example 9, N = 4, titer of AJ-p150 or AJ-p54 as control being 1 (logarithm)
[4] = Example 9, mice, N = 4, titer of AJ-p150 or AJ-p54 as control being 1 (logarithm)

| Substance | Antibody titer with respect to aggregated human αSyn, relative to control (aggregated human αSyn; [1]) | Antibody titer with respect to human αSyn, relative to control (human αSyn; [2]) | other results |
| --- | --- | --- | --- |
| ELKLIFLHRLKRLRKRLKRKEAAAKEAYEMPSEE [AJ-EAAAK-p150] | 1.16 | 1.14 |  |
| ELKLIFLHRLKRLRKRLKRKXKKTQLGKNE (ELKLIFLHRLKRLRKRLKRK[Ahx]KKTQLGKNE) [AJ-p229] |  |  | Antibody titer with respect to aggregated human αSyn, relative to control (aggregated human αSyn; [3]): 1.02; Antibody titer compared with control conjugate (in words) (human αSyn): same level of an antibody titer; Antibody titer with respect to human αSyn, relative to control (human αSyn; [4]): 0.92 |
| ELKLIFLHRLKRLRKRLKRKϵKKKDQLGKNE [AJ-εK-p54] | 0.81 | 0.70 |  |
| ELKLIFLHRLKRLRKRLKRKXKKDQLGKNE-C-KLH (not fully specified; C-terminal Cys linked to KLH) [AJ-p54-KLH, KLH-modified AJ-human αSyn peptide conjugate, KLH linked via cysteine to the C-terminal] |  |  | Induction of the antibody to aggregated human αSyn (in words) (aggregated human αSyn): induced; Antibody titer with respect to aggregated human αSyn (mean ± standard deviation) (aggregated human αSyn): 640 ± 314; Induction of the antibody to human αSyn (in words) (human αSyn; Example 3, mice): induced to the same extent; Antibody titer (N = 4 − 6, mean ± standard deviation) with respect to human αSyn (human αSyn; Example 3, mice, same manner as Example 2): 1621 ± 681; Induction of the antibody to human αSyn (in words) (human αSyn; Example 4, balb/c mice): induced; Antibody titer with respect to human αSyn (mean ± standard deviation) (human αSyn): 1621 ± 681 |
| ELKLIFLHRLKRLRKRLKRKXEAFEMPSEEG (ELKLIFLHRLKRLRKRLKRK[Ahx]EAFEMPSEEG) [AJ-p277] |  |  | Antibody titer with respect to aggregated human αSyn (N = 4 − 6, mean ± standard deviation) (aggregated human αSyn): 576 ± 322; Antibody titer with respect to human αSyn (N = 4 − 6, mean ± standard deviation) (human αSyn): 1920 ± 1585 |
| ELKLIFLHRLKRLRKRLKRKGGGGSEAYEMPSEE [AJ-GGGGS-p150] | 1.25 | 1.19 |  |
| ELKLIFLHRLKRLRKRLKRKαKEAYEMPSEE [AJ-αK-p150] | 1.05 | 0.95 |  |
| ELKLIFLHRLKRLRKRLKRKαKKKDQLGKNE [AJ-αK-p54] | 0.92 | 0.99 |  |
| ELKLIFLHRLKRLRKRLKRKEAAAKKKDQLGKNE [AJ-EAAAK-p54] | 0.96 | 0.96 |  |
| ELKLIFLHRLKRLRKRLKRKXKKDELGKDE (ELKLIFLHRLKRLRKRLKRK[Ahx]KKDELGKDE) [AJ-p298] |  |  | Antibody titer with respect to aggregated human αSyn, relative to control (aggregated human αSyn; [3]): 0.93; Antibody titer compared with control conjugate (in words) (human αSyn): same level of an antibody titer; Antibody titer with respect to human αSyn, relative to control (human αSyn; [4]): 0.82 |
| ELKLIFLHRLKRLRKRLKRKϵKKKKKKDQLGKNE [AJ-εKKKK-p54] | 0.90 | 0.77 |  |
| ELKLIFLHRLKRLRKRLKRKXDMPVDPDN (ELKLIFLHRLKRLRKRLKRK[Ahx]DMPVDPDN) [AJ-DMPVDPDN, reference compound] |  |  | Induction of the antibody to aggregated human αSyn (in words) (aggregated human αSyn): very weak antibody-inducing effect; Antibody titer with respect to aggregated human αSyn (mean ± standard deviation) (aggregated human αSyn): 358 ± 140; Induction of the antibody to human αSyn (in words) (human αSyn; Example 4, balb/c mice): very weak antibody-inducing effect; Antibody titer with respect to human αSyn (mean ± standard deviation) (human αSyn): 168 ± 122 |
| ELKLIFLHRLKRLRKRLKRKXKKNQLGKNE (ELKLIFLHRLKRLRKRLKRK[Ahx]KKNQLGKNE) [AJ-p237] |  |  | Antibody titer with respect to aggregated human αSyn, relative to control (aggregated human αSyn; [3]): 0.95; Antibody titer compared with control conjugate (in words) (human αSyn): same level of an antibody titer; Antibody titer with respect to human αSyn, relative to control (human αSyn; [4]): 0.91 |
| ELKLIFLHRLKRLRKRLKRKDDAKKKKDQLGKNE [AJ-DDAKK-p54] | 0.98 | 1.03 |  |
| ELKLIFLHRLKRLRKRLKRKPPDPDPEAYEMPSEE [AJ-PPDPDP-p150] | 1.37 | 1.33 |  |
| ELKLIFLHRLKRLRKRLKRKϵKKKEAYEMPSEE [AJ-εKKK-p150] | 0.90 | 0.79 |  |
| ELKLIFLHRLKRLRKRLKRKXEAYEMPSEDG (ELKLIFLHRLKRLRKRLKRK[Ahx]EAYEMPSEDG) [AJ-p283, AJ peptide linked to p283 via ε-Acp (X)] |  |  | Antibody-inducing ability regarding the aggregated human αSyn (in words) (aggregated human αSyn; Example 2, balb/c mice): particularly strong antibody-inducing ability; Antibody titer with respect to aggregated human αSyn (N = 4 − 6, mean ± standard deviation) (aggregated human αSyn): 1152 ± 644; Antibody titer with respect to human αSyn (N = 4 − 6, mean ± standard deviation) (human αSyn): 2304 ± 1289 |
| ELKLIFLHRLKRLRKRLKRKPPDPDPKKDQLGKNE [AJ-PPDPDP-p54] | 0.88 | 0.89 |  |
| ELKLIFLHRLKRLRKRLKRKDDAKKEAYEMPSEE [AJ-DDAKK-p150] | 1.30 | 1.14 |  |
